From PubChem BioAssay (NCI)
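Exposure lasted 48 hours, with cells grown in 96-well plates and compounds tested at five concentrations. At the TGI there is no net growth.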

Assays:
Assay in all cases: NCI-60 cell line screen, 48 h
NCI-H522 lung = test system: NCI-H522 lung
SF-268 CNS = test system: SF-268 CNS
OVCAR-3 ovarian = test system: OVCAR-3 ovarian
NCI-H226 lung = test system: NCI-H226 lung
CCRF-CEM leukemia = test system: CCRF-CEM leukemia
SK-MEL-2 melanoma = test system: SK-MEL-2 melanoma
OVCAR-4 ovarian = test system: OVCAR-4 ovarian
RXF 393 renal = test system: RXF 393 renal
A549 NSCLC = test system: A549 NSCLC
TK-10 renal = test system: TK-10 renal
MDA-N = test system: MDA-N
MCF7 breast = test system: MCF7 breast

| SMILES | TGI (NCI-H522 lung) [µM] | TGI (SF-268 CNS) [µM] | TGI (OVCAR-3 ovarian) [µM] | TGI (NCI-H226 lung) [µM] | TGI (CCRF-CEM leukemia) [µM] | TGI (SK-MEL-2 melanoma) [µM] | TGI (OVCAR-4 ovarian) [µM] | TGI (RXF 393 renal) [µM] | TGI (A549 NSCLC) [µM] | TGI (TK-10 renal) [µM] | TGI (MDA-N) [µM] | TGI (MCF7 breast) [µM] |
| --- | --- | --- | --- | --- | --- | --- | --- | --- | --- | --- | --- | --- |
| COc1ccc2c(c1)[n+]([O-])c(/C(C)=N/NC(=O)c1ccccc1O)c(C)[n+]2[O-] | > 100 | > 100 | > 100 | > 100 | > 100 | > 100 | > 100 | > 100 | > 100 | > 100 | – | – |
| CCN(CC)Cc1cc(Nc2ccnc3ccc4nn(C)nc4c23)ccc1O | 21.6 | 36.4 | 68 | 41.7 | > 100 | – | 37 | 21.6 | 80 | 75.6 | – | – |
| Cc1nc2c3c(ccc2[nH]c1=O)C(=O)c1ccccc1C3=O | > 100 | > 100 | > 100 | > 100 | – | – | > 100 | > 100 | > 100 | > 100 | – | – |
| CC(C)c1ccc(/C=C/c2cc(C(=O)NNC(=O)NC3CCCCC3)nc(=S)[nH]2)cc1 | > 100 | > 100 | > 100 | > 100 | – | – | > 100 | > 100 | > 100 | > 100 | – | – |
| O=[N+]([O-])C=C1c2ccccc2-c2ccccc21 | – | 36.4 | 28.4 | – | 80.8 | 39.9 | 28.2 | 31.3 | 42.8 | 32.3 | – | – |
| CCCCC1(O)CC2CC1C(C)C2(C)C (stereo not given) | – | > 100 | > 100 | > 100 | > 100 | – | > 100 | > 100 | > 100 | > 100 | > 100 | > 100 |
| O=C(O)c1ccc([C@@H]2C(=O)N(O)[C@@H]3C=CC[C@@H]32)cc1 | > 100 | > 100 | > 100 | > 100 | > 100 | > 100 | – | > 100 | > 100 | > 100 | – | – |
| CC(C)C(Sc1nc(-c2ccccc2)c(-c2ccccc2)[nH]1)c1n[nH]c(=S)n1-c1ccccc1 (stereo not given) | 43.6 | > 100 | 45.9 | > 100 | 64.5 | 43 | > 100 | – | > 100 | > 100 | – | – |
| COC(=O)C(c1ccc(OC)cc1)N1C(=O)[C@@H](NC(=O)c2ccccc2)[C@H]1[C@@H](C)O (stereo not given in full) | > 100 | > 100 | > 100 | > 100 | > 100 | > 100 | > 100 | > 100 | > 100 | > 100 | – | – |
| O=C(O)c1c2c(cc3c(=O)cc(-c4ccccc4)oc13)CCCC2 | > 100 | > 100 | > 100 | – | > 100 | > 100 | > 100 | – | > 100 | > 100 | – | – |
| Cc1ccc(-c2nnc3s/c(=C\c4ccc(N(C)C)cc4)c(=O)n23)cc1 | > 100 | > 100 | > 100 | > 100 | > 100 | > 100 | > 100 | > 100 | > 100 | > 100 | – | – |
| COc1ccccc1NC(=O)CC(=O)N1N=C(c2ccccc2)C(N=Nc2ccc(Cl)cc2)C1=O (stereo not given) | > 100 | > 100 | 74.3 | > 100 | – | > 100 | 56.6 | – | > 100 | 52.3 | – | – |
| COc1ccc(/C=C/C(=O)c2sc(-c3cccnc3)nc2C)cc1 | > 100 | > 100 | 88.3 | > 100 | > 100 | > 100 | – | 90.8 | > 100 | > 100 | – | – |
| COc1cc(CNc2cnc3ccc(N)cc3n2)cc(OC)c1OC | > 100 | > 100 | > 100 | > 100 | > 100 | > 100 | > 100 | > 100 | > 100 | > 100 | – | – |
| CC(=O)NNc1nc(C)c(C(=O)/C=C/c2ccc(Cl)c(Cl)c2)s1 | > 100 | > 100 | > 100 | – | > 100 | > 100 | – | > 100 | > 100 | > 100 | – | – |
| NC(N)=NS(=O)(=O)c1ccc(NC(=O)c2cccc3c(N)c4ccccc4nc23)cc1 | > 100 | > 100 | > 100 | > 100 | > 100 | > 100 | > 100 | > 100 | > 100 | > 100 | – | – |
| O=c1[nH]c2c(c(=O)[nH]1)C(c1ccc([N+](=O)[O-])cc1)c1c([nH]c(=O)[nH]c1=O)O2 | 82.9 | > 100 | > 100 | > 100 | 90.5 | > 100 | > 100 | > 100 | > 100 | > 100 | > 100 | – |
